According to US20160346313A1, “USES OF OLIGOURONATES IN CANCER TREATMENT” (NORWEGIAN UNIVERSITY OF SCIENCE AND TECHNOLOGY, priority 2013, published 2016):

Test system: Capan-2 human pancreas tumour xenograft
Assay: Capan-2 human pancreas tumour xenograft model: tumour weight, with statistical analysis (ANOVA by day, Eav, log scale, exponential growth model)
Format: in vivo, Female Athymic Nude mice
Conditions: for Tumour weight, Difference vs Vehicle / Tumour weight, Estimate: Q3Dx4, G-Block IV, gemcitabine IP; for Estimate (mg), tumour weight geometric mean / Ratio vs Vehicle: Gemcitabine 5
Experimental: Efficacy was assessed by comparison of tumour weights of treated groups with the vehicle control group on Day 11 and 74 and between combination groups and their respective single agents on Day 11 and 74.
G-Block (Lot #PolyG 230712-Dp10, 95%G) was received as a white hygroscopic amorphous powder from NTNU Technology Transfer AS (Trondheim, Norway) and stored desiccated at room temperature until use. NTNU's G-Block was dissolved in MilliQ water to a concentration of 70 mg/ml to be used as the stock solution. This solution was used to deliver a dose of approximately 560 mg/kg in a 200 μl fixed dose. The 70 mg/ml solution was then diluted in 0.9% 150 mM NaCl (B. Braun Medical; Irvine, Calif.) to deliver doses of approximately 200 mg/kg, 75 mg/kg, 25 mg/kg, and 5 mg/kg in a 200 μL fixed dose volume. All dosing calculations assume a 25 g animal. NTNU's G-Block 70 mg/ml stock solution was formulated at the beginning of the study and used for dilutions before each dose, sterile filtered, and stored at 4° C. between doses. All unused dosing mixture was properly disposed of at TD2 after the study ended.
All unused dosing mixture was properly disposed of at TD2 after each dose.
Vehicle control was dosed with a solution of 0.9% 150 mM NaCl at a 10 ml/kg dose volume. Vehicle control was stored at room temperature.
Capan-2 human pancreas tumour xenograft cell line was received from ATCC (Manassas, Va.). Cultures were maintained in McCoy's 5A medium (Hyclone, Logan, Utah) supplemented with 10% fetal bovine serum (Omega Scientific; Tarzana, Calif.), and housed in a 5% CO2 atmosphere. The cultures were expanded in tissue culture flasks at a 1:5 split ratio until a sufficient amount of cells were harvested.
Female Athymic Nude mice (Hsd:Athymic Nude-Foxn1^nu) were supplied by Harlan (Germantown, N.Y.). Mice were received at 4 weeks of age. All mice were acclimated prior to handling. The mice were housed in microisolator cages (Lab Products, Seaford, Del.) and maintained under specific pathogen-free conditions. The mice were fed Tekland Global Diet® 2920× irradiated laboratory animal diet (Harlan, Indianapolis, Ind.) and autoclaved water was freely available. All procedures were carried out under the institutional guidelines of TGen Drug Development Institutional Animal Care and Use Committee (Protocol #13046).
Female mice were inoculated subcutaneously in the right flank with 0.1 mL of a 50% RPMI/50% Matrigel™ (BD Biosciences, Bedford, Mass.) mixture containing a suspension of Capan-2 tumor cells (approximately 5.0×10^6 cells/mouse). Seven days following inoculation, tumors were measured using calipers and tumor weight was calculated using the animal study management software, Study Director V.2.1.1 (Study Log)^1. Eighty mice with tumor sizes of 101-194 mg were randomized into eight groups of ten mice each by random equilibration with a mean of approximately 140 mg, using Study Director (Day 1). Body weights were recorded when the mice were randomized and were taken twice weekly thereafter in conjunction with tumor measurements. Dosing was performed as described below in Table 1.
All groups were terminated on Day 74. Mice were sacrificed prior to study end if tumor weight exceeded 1500 mg. Upon necropsy, tumors were excised from all animals in all groups and bisected in halves, placed in formalin vials (Azer Scientific/VWR; Franklin Lakes, N.J.) then fixed for approximately 24 hours before transferring to ethanol. Formalin-fixed tissues were embedded in paraffin, processed, and H & E stained.
The following concerns a statistical analysis of tumour weights in the study reported in Example 2. […] Tumour weight and body weights were assessed Day 1 and then twice weekly up to last assessment on Day 74.
Treatments were compared using an analysis of variance (ANOVA) model with fixed factor treatment and tumour weight at Day 1 as a covariate and assuming equal variance for each assessment (Day 1 model without covariate).

[1] = 0-19 days, label number = dose mg/kg, Q3Dx4
[2] = 0-29 days, label number = dose mg/kg, Q3Dx4
[3] = 0-39 days, label number = dose mg/kg, Q3Dx4
[4] = 0-50 days, label number = dose mg/kg, Q3Dx4
[5] = 0-60 days, label number = dose mg/kg, Q3Dx4
[6] = Day 1 (randomisation), label number = dose mg/kg
[7] = Day 4, label number = dose mg/kg
[8] = Day 8, label number = dose mg/kg
[9] = Day 11, label number = dose mg/kg
[10] = Day 16, label number = dose mg/kg
[11] = Day 19, label number = dose mg/kg
[12] = Day 22, label number = dose mg/kg
[13] = Day 25, label number = dose mg/kg
[14] = Day 29, label number = dose mg/kg
[15] = Day 32, label number = dose mg/kg
[16] = Day 36, label number = dose mg/kg
[17] = Day 39, label number = dose mg/kg
[18] = Day 43, label number = dose mg/kg
[19] = Day 46, label number = dose mg/kg
[20] = Day 50, label number = dose mg/kg
[21] = Day 53, label number = dose mg/kg
[22] = Day 57, label number = dose mg/kg
[23] = Day 60, label number = dose mg/kg
[24] = Day 64, label number = dose mg/kg
[25] = Day 67, label number = dose mg/kg
[26] = Day 71, label number = dose mg/kg
[27] = Day 74, label number = dose mg/kg

## Nc1ccn([C@@H]2O[C@H](CO)[C@@H](O)C2(F)F)c(=O)n1 [Gemcitabine 5, Gemcitabine]
[1]
  Eau, 0-19 (average tumour weight = AUC / interval length), Estimate: 173.4 mg
  Eau, 0-19, Difference vs Vehicle: -67.6 mg
[2]
  Eau, 0-29 (average tumour weight = AUC / interval length), Estimate: 195.5 mg
  Eau, 0-29, Difference vs Vehicle: -93.6 mg
[3]
  Eau, 0-39 (average tumour weight = AUC / interval length), Estimate: 231.3 mg
  Eau, 0-39, Difference vs Vehicle: -118.1 mg
[4]
  Eau, 0-50 (average tumour weight = AUC / interval length), Estimate: 292.1 mg
  Eau, 0-50, Difference vs Vehicle: -121.2 mg
[5]
  Eau, 0-60 (average tumour weight = AUC / interval length), Estimate: 349.7 mg
  Eau, 0-60, Difference vs Vehicle: -118.4 mg
ANOVA by day
  Consistent statistically significant effect versus Vehicle on tumour weight, up to Day: ≤ 36
ANOVA of Eav
  Eav intervals with statistically significant effects versus Vehicle, up to: up to 50 days
[6]
  Tumour weight, Difference vs Vehicle: -0.0 mg
  Tumour weight, Estimate: 140.7 mg
Day 1
  Estimate (mg), tumour weight geometric mean: 138.6 mg
  Ratio vs Vehicle: 1.00
Day 4
  Estimate (mg), tumour weight geometric mean: 186.7 mg
[7]
  Tumour weight, Difference vs Vehicle: 14.1 mg
  Tumour weight, Estimate: 189.8 mg
Day 8
  Estimate (mg), tumour weight geometric mean: 157.0 mg
  Ratio vs Vehicle: 0.71
[8]
  Tumour weight, Difference vs Vehicle: -69.0 mg
  Tumour weight, Estimate: 161.6 mg
Day 11
  Estimate (mg), tumour weight geometric mean: 167.8 mg
  Ratio vs Vehicle: 0.64
[9]
  Tumour weight, Difference vs Vehicle: -111.0 mg
  Tumour weight, Estimate: 174.2 mg
Day 16
  Estimate (mg), tumour weight geometric mean: 172.5 mg
  Ratio vs Vehicle: 0.63
[10]
  Tumour weight, Difference vs Vehicle: -116.3 mg
  Tumour weight, Estimate: 181.4 mg
Day 19
  Estimate (mg), tumour weight geometric mean: 185.1 mg
  Ratio vs Vehicle: 0.64
[11]
  Tumour weight, Difference vs Vehicle: -119.5 mg
  Tumour weight, Estimate: 194.7 mg
Day 22
  Estimate (mg), tumour weight geometric mean: 216.1 mg
  Ratio vs Vehicle: 0.67
[12]
  Tumour weight, Difference vs Vehicle: -122.5 mg
  Tumour weight, Estimate: 225.0 mg
Day 25
  Estimate (mg), tumour weight geometric mean: 233.4 mg
  Ratio vs Vehicle: 0.64
[13]
  Tumour weight, Difference vs Vehicle: -157.9 mg
  Tumour weight, Estimate: 244.0 mg
Day 29
  Estimate (mg), tumour weight geometric mean: 258.9 mg
  Ratio vs Vehicle: 0.64
[14]
  Tumour weight, Difference vs Vehicle: -164.9 mg
  Tumour weight, Estimate: 273.6 mg
Day 32
  Estimate (mg), tumour weight geometric mean: 286.5 mg
  Ratio vs Vehicle: 0.62
[15]
  Tumour weight, Difference vs Vehicle: -208.5 mg
  Tumour weight, Estimate: 310.1 mg
Day 36
  Estimate (mg), tumour weight geometric mean: 324.4 mg
  Ratio vs Vehicle: 0.68
[16]
  Tumour weight, Difference vs Vehicle: -190.3 mg
  Tumour weight, Estimate: 360.9 mg
Day 39
  Estimate (mg), tumour weight geometric mean: 349.9 mg
  Ratio vs Vehicle: 0.78
[17]
  Tumour weight, Difference vs Vehicle: -165.4 mg
  Tumour weight, Estimate: 389.6 mg
Day 43
  Estimate (mg), tumour weight geometric mean: 439.5 mg
  Ratio vs Vehicle: 0.84
[18]
  Tumour weight, Difference vs Vehicle: -138.1 mg
  Tumour weight, Estimate: 506.6 mg
Day 46
  Estimate (mg), tumour weight geometric mean: 460.6 mg
  Ratio vs Vehicle: 0.86
[19]
  Tumour weight, Difference vs Vehicle: -107.4 mg
  Tumour weight, Estimate: 536.4 mg
Day 50
  Estimate (mg), tumour weight geometric mean: 485.0 mg
  Ratio vs Vehicle: 0.85
[20]
  Tumour weight, Difference vs Vehicle: -130.4 mg
  Tumour weight, Estimate: 573.5 mg
Day 53
  Estimate (mg), tumour weight geometric mean: 530.7 mg
  Ratio vs Vehicle: 0.93
[21]
  Tumour weight, Difference vs Vehicle: -61.2 mg
  Tumour weight, Estimate: 653.0 mg
Day 57
  Estimate (mg), tumour weight geometric mean: 516.6 mg
  Ratio vs Vehicle: 0.90
[22]
  Tumour weight, Difference vs Vehicle: -144.3 mg
  Tumour weight, Estimate: 626.6 mg
Day 60
  Estimate (mg), tumour weight geometric mean: 539.6 mg
  Ratio vs Vehicle: 1.00
[23]
  Tumour weight, Difference vs Vehicle: -84.5 mg
  Tumour weight, Estimate: 680.5 mg
Day 64
  Estimate (mg), tumour weight geometric mean: 633.3 mg
[24]
  Tumour weight, Difference vs Vehicle: 76.1 mg
  Tumour weight, Estimate: 869.5 mg
Day 67
  Estimate (mg), tumour weight geometric mean: 695.7 mg
[25]
  Tumour weight, Difference vs Vehicle: 85.1 mg
  Tumour weight, Estimate: 952.8 mg
Day 71
  Estimate (mg), tumour weight geometric mean: 746.4 mg
[26]
  Tumour weight, Difference vs Vehicle: 54.2 mg
  Tumour weight, Estimate: 1078.5 mg
Day 74
  Estimate (mg), tumour weight geometric mean: 746.3 mg
  Ratio vs Vehicle: 1.33
[27]
  Tumour weight, Difference vs Vehicle: 157.2 mg
  Tumour weight, Estimate: 1009.1 mg
Exponential model y=C*exp(a*t), t in days, data up to 60 days, label number = dose mg/kg
  Estimated differences vs Vehicle in growth rates: −0.0042
Exponential model, data up to 60 days, contrast vs G-Block 560 mg/kg alone
  Estimated differences between active treatments in growth rates, vs G-B 560: −0.0015
